Assay results taken from BindingDB's records for patent US10919885 (Yumanity Therapeutics, 2021).

How the values were obtained:
[1] = target: T1, Stearoyl-CoA desaturase (Homo sapiens, UniProt O00767); assay: Compound Profiling Methods
T1 sequence (O00767 whole entry): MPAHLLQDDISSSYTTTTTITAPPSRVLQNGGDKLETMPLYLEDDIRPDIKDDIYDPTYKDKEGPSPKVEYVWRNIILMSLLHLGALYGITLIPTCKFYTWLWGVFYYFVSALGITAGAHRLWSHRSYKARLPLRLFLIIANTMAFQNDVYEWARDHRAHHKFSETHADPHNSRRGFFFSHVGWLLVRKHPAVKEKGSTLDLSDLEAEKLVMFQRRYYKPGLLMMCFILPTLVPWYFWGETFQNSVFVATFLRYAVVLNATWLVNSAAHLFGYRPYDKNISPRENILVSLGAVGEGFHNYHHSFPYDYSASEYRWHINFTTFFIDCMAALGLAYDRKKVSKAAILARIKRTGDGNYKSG
Protocol: (§1) Strains expressing SCD1 or SCD5 as the sole desaturase, the human SCD1 and SCD5 genes were used to evaluate inhibition of SCD1/SCD5 using reduced growth as a surrogate for SCD inhibition. These yeast strains express human SCD1 or SCD5 from a plasmid harbored in a strain in which the yeast OLE1 gene is deleted.All compound profiling experiments were performed using the same basic protocol. Yeast were cultured using standard techniques in complete synthetic media lacking uracil and containing yeast nitrogen base supplemented with 2% (w/v) glucose (SD-Ura) Starter cultures were inoculated in 3 mL SD-Ura media containing 0.01% tween and 0.2 mM palmitoleic and oleic acid. Cultures were incubated overnight in a 30° C. shaker incubator (225 rpm). Saturated morning cultures were centrifuged, washed in SD-Ura media lacking TWEEN-20 and fatty acids, and then diluted 1:20 in fresh SD-Ura media also lacking TWEEN-20 and fatty acids. […] Compound administration was performed in two separate steps. First, 15 μL of SD-Ura was dispensed into clear 384-well assay plates using a MULTIDROP Combi reagent dispenser. […] The cultures described above were centrifuged and washed with media lacking TWEEN-20 or oleic and palmitoleic acids. Cultures were then resuspended at a 2-fold concentrated OD600 of 0.02 (final OD600 of 0.0.01) in SD-Ura. […] Yeast growth was monitored by reading the OD600 of each well using a microplate reader (Perkin Elmer EnVision ). Data were analyzed as follows.

[2] = target: T2, Stearoyl-CoA desaturase 5 (Homo sapiens, UniProt Q86SK9); assay: Compound Profiling Methods
T2 sequence (Q86SK9 whole entry): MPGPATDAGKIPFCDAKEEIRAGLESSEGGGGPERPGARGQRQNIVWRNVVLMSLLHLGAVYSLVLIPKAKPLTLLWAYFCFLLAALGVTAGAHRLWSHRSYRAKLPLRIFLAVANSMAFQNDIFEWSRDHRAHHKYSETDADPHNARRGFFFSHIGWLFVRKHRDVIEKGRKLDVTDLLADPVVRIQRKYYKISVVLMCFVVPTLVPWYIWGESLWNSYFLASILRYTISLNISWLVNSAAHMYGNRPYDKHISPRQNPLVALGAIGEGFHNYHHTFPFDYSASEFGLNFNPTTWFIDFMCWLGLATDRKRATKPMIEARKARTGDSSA
Protocol: as §1

Structure (SMILES) | IC50 [1] [µM] | IC50 [2] [µM]
O=C(Nc1cnn(Cc2ccccc2)c1)c1cc(-c2ccc3c(c2)OCO3)on1 [US10919885, Compound No. 6] | > 45 | –
O=C(Nc1cnn(Cc2cccc(Cl)c2)c1)c1cc(-c2ccccn2)on1 [US10919885, Compound No. 57] | > 45 | > 45
CC(C)(C)OC(=O)N1CCC(NC(=O)c2cc(-c3ccco3)on2)CC1 [US10919885, Compound No. 287] | > 45 | > 45
N#Cc1ccc(C2CCN(C(=O)c3cc(-c4ccc5c(c4)OCO5)on3)CC2)cc1 [US10919885, Compound No. 291] | > 45 | 4.75
O=C(c1cc(-c2ccc3c(c2)OCO3)on1)N1CCC(c2ccc(F)c(F)c2)CC1 [US10919885, Compound No. 292] | > 45 | 1.82
CC(C)(C)OC(=O)N1CCC2(CCN(C(=O)c3cc(-c4ccccc4)on3)C2)C1 (stereo not drawn) [US10919885, Compound No. 295] | > 45 | 29.4
CC(C)(C)OC(=O)N1CCC(NC(=O)c2cc(-c3ccco3)on2)C1 (stereo not drawn) [US10919885, Compound No. 332] | > 45 | > 45
COc1ccc(C2CCCN2C(=O)c2cc(-c3ccccc3OC)on2)cc1 (stereo not drawn) [US10919885, Compound No. 379] | > 45 | –
O=C(c1noc2ccccc12)N1CCC[C@H]1c1ccccc1 [US10919885, Compound No. 438] | > 45 | > 45
O=C(c1cc(-c2ccc3c(c2)CCO3)on1)N1CCCC1c1ccncn1 (stereo not drawn) [US10919885, Compound No. 440] | > 45 | > 45
